From patent publication US20190343908A1, “Therapeutic Combination for the Treatment of Cancer” (Nerium Biotechnology Inc., priority 2011, published 2019)

Legend:
[1] = tested on: A375 melanoma cancer cell line; assay: Sulforhodamine B viability assay, A375; format: cell-based, human; details: for ABSORBANCE: 0.1 μg/mL cisplatin; for Average absorbance, SRB 24 h / Average absorbance, SRB 48 h / Average absorbance, SRB 72 h: A375 Run 1
From the text: (§1) Three different viability assays were chosen to complement each other and yielded results dependent on concentration and cell line: the Methyl Tetrazolium dye assay, the Sulforhodamine B fluorescent dye assay, and the Crystal Violet dye assay.
(§2) The Sulforhodamine B and Crystal Violet assays provide information about protein and were used to complement the Methyl-Tetrazolium dye assay. […] It is used for the quantification of cellular proteins of cultured cells. The assay using Crystal Violet, a dye that binds electrostatically to proteins and stains DNA, provides a reliable, simple assay for measuring viability of cells.
(§3) The Methyl Tetrazolium, Sulforhodamine B, and Crystal Violet assays were used to assess cell viabilities. The incubation times were 24 hours, 48 hours, and 72 hours. The Nerium oleander extract Anvirzel™ (a hot water extract of oleander obtained from Salud Integral, Honduras) was tested in concentrations ranging from 0.01 ng/mL to 10 ng/mL.
(§4) Cells were detached by trypsinization (Trypsin-0.25% EDTA, Invitrogen, 25200-072) during the logarithmic phase of culture growth and plated in 96-well plates (18.000 cells/well) (Corning, Costar 359) in a final volume of 200 μl of medium per well. […] The absorbance was measured after 24 hours, 48 hours, and 72 hours of incubation.
(§5) For the Sulforhodamine B assay, 96-well plates were fixed by 10% trichloroacetic acid (Fluka, 91228) and were incubated at 4° C. for 1 hour. Afterwards, plates were rinsed with water and cells were stained with 0.4% Sulforhodamine B (Sigma, 341738), dissolved in 1% acetic acid (Carlo Ebra, 401422) for 15 minutes at room temperature (RT). The unbound stain was washed twice with 1% acetic acid. Finally, 10 mM Tris Buffer pH 10.5 (Sigma, T6791) was added to dissolve the dye.
(§6) The optical density of each plate was measured on a μQuant spectrophotometer and the data were analyzed with Gen5 software (μQuant Biomolecular Spectrophotometer MQX200 and Gen5™ Microplate Data Collection & Analysis software, BioTek® Instruments. Inc, April 2008). Absorbance was measured at 570 nm for all assays and a second wavelength was measured in order to subtract noise. For the Methyl-Tetrazolium assay this second wavelength was 630 nm and for the Sulforhodamine B and Crystal Violet assays it was 690 nm.

[2] = tested on: HCT-15 (colorectal cancer); assay: Sulforhodamine B viability assay, HCT-15; format: cell-based, human; set-up: key to SRB Average: absorbance (optical density) at 570 nm, second wavelength subtracted; details: for SRB Average 24 h / SRB Average 48 h / SRB Average 72 h: HCT-15, Run 1
From the text: as §1, §2, §3, §4, §5, §6

[3] = tested on: T47D (human breast cancer); assay: Crystal Violet viability assay, T47D; format: cell-based; set-up: key: absorbance at 570 nm (crystal violet), background wavelength subtracted
From the text: as §1, §2, §3, §4
For the Crystal Violet assay, the medium was removed from the 96-well plates, the plates rinsed with PBS (Sigma, P3813) and then the cells were […] by the addition of 10% formalin (MERCK, 1.04003.2500) for 20 minutes at RT. Formalin was removed and 0.25% aqueous crystal violet (Sigma, HT901), dissolved in water, was added for 10 minutes at RT. Unbound Crystal Violet was rinsed by washing with water and finally 33% acetic acid was added to dissolve the dye.
as §6

## N.N.[Cl][Pt][Cl] [cisplatin]
[1]; A375, 48 h
  ABSORBANCE: 2.421
[1]; A375, 72 h
  ABSORBANCE: 2.487
[1]; 0.1 μg/ml CDDP
  Average absorbance, SRB 24 h: 2.072
  Average absorbance, SRB 48 h: 2.421
  Average absorbance, SRB 72 h: 2.487
[1]; 1 μg/ml CDDP
  Average absorbance, SRB 24 h: 1.579
  Average absorbance, SRB 48 h: 1.987
  Average absorbance, SRB 72 h: 2.256
[1]; 10 μg/ml CDDP
  Average absorbance, SRB 24 h: 1.117
  Average absorbance, SRB 48 h: 1.678
  Average absorbance, SRB 72 h: 1.913
[1]; 100 μg/ml CDDP
  Average absorbance, SRB 24 h: 1.283
  Average absorbance, SRB 48 h: 1.782
  Average absorbance, SRB 72 h: 1.319
[1]; A375 Run 2, 24 h, 0.1 μg/ml CDDP
  Average absorbance SRB: 2.189
[1]; A375 Run 2, 24 h, 1 μg/ml CDDP
  Average absorbance SRB: 1.916
[1]; A375 Run 2, 24 h, 10 μg/ml CDDP
  Average absorbance SRB: 1.827
[1]; A375 Run 2, 24 h, 100 μg/ml CDDP
  Average absorbance SRB: 1.939
[1]; A375 Run 2, 48 h, 0.1 μg/ml CDDP
  Average absorbance SRB: 2.571
[1]; A375 Run 2, 48 h, 1 μg/ml CDDP
  Average absorbance SRB: 1.366
[1]; A375 Run 2, 48 h, 10 μg/ml CDDP
  Average absorbance SRB: 1.265
[1]; A375 Run 2, 48 h, 100 μg/ml CDDP
  Average absorbance SRB: 1.293
[1]; A375 Run 2, 72 h, 0.1 μg/ml CDDP
  Average absorbance SRB: 2.634
[1]; A375 Run 2, 72 h, 1 μg/ml CDDP
  Average absorbance SRB: 2.085
[1]; A375 Run 2, 72 h, 10 μg/ml CDDP
  Average absorbance SRB: 1.617
[1]; A375 Run 2, 72 h, 100 μg/ml CDDP
  Average absorbance SRB: 1.491
[1]; A375 Run 3, 24 h, 0.1 μg/ml CDDP
  Average absorbance SRB: 1.597
[1]; A375 Run 3, 24 h, 1 μg/ml CDDP
  Average absorbance SRB: 1.126
[1]; A375 Run 3, 24 h, 10 μg/ml CDDP
  Average absorbance SRB: 1.294
[1]; A375 Run 3, 24 h, 100 μg/ml CDDP
  Average absorbance SRB: 0.982
[1]; A375 Run 3, 48 h, 0.1 μg/ml CDDP
  Average absorbance SRB: 2.175
[1]; A375 Run 3, 48 h, 1 μg/ml CDDP
  Average absorbance SRB: 1.83
[1]; A375 Run 3, 48 h, 10 μg/ml CDDP
  Average absorbance SRB: 1.586
[1]; A375 Run 3, 48 h, 100 μg/ml CDDP
  Average absorbance SRB: 1.572
[1]; A375 Run 3, 72 h, 0.1 μg/ml CDDP
  Average absorbance SRB: 2.184
[1]; A375 Run 3, 72 h, 1 μg/ml CDDP
  Average absorbance SRB: 1.491
[1]; A375 Run 3, 72 h, 10 μg/ml CDDP
  Average absorbance SRB: 1.571
[1]; A375 Run 3, 72 h, 100 μg/ml CDDP
  Average absorbance SRB: 1.271
[2]; 0.1 μg/ml CDDP
  SRB Average 24 h: 2.592
  SRB Average 48 h: 2.747
  SRB Average 72 h: 2.792
[2]; 1 μg/ml CDDP
  SRB Average 24 h: 1.974
  SRB Average 48 h: 2.397
  SRB Average 72 h: 1.697
[2]; 10 μg/ml CDDP
  SRB Average 24 h: 1.657
  SRB Average 48 h: 2.449
  SRB Average 72 h: 1.71
[2]; 100 μg/ml CDDP
  SRB Average 24 h: 1.854
  SRB Average 48 h: 1.937
  SRB Average 72 h: 1.634
[2]; Run 2, 24 h, 0.1 μg/ml CDDP
  SRB Average: 2.271
[2]; Run 2, 24 h, 1 μg/ml CDDP
  SRB Average: 1.762
[2]; Run 2, 24 h, 10 μg/ml CDDP
  SRB Average: 2.09
[2]; Run 2, 24 h, 100 μg/ml CDDP
  SRB Average: 1.78
[2]; Run 2, 48 h, 0.1 μg/ml CDDP
  SRB Average: 2.54
[2]; Run 2, 48 h, 1 μg/ml CDDP
  SRB Average: 2.198
[2]; Run 2, 48 h, 10 μg/ml CDDP
  SRB Average: 2.456
[2]; Run 2, 48 h, 100 μg/ml CDDP
  SRB Average: 2.169
[2]; Run 2, 72 h, 0.1 μg/ml CDDP
  SRB Average: 2.797
[2]; Run 2, 72 h, 1 μg/ml CDDP
  SRB Average: 2.068
[2]; Run 2, 72 h, 10 μg/ml CDDP
  SRB Average: 1.85
[2]; Run 2, 72 h, 100 μg/ml CDDP
  SRB Average: 1.585
[2]; Run 3, 24 h, 0.1 μg/ml CDDP
  SRB Average: 2.578
[2]; Run 3, 24 h, 1 μg/ml CDDP
  SRB Average: 1.713
[2]; Run 3, 24 h, 10 μg/ml CDDP
  SRB Average: 1.941
[2]; Run 3, 24 h, 100 μg/ml CDDP
  SRB Average: 1.254
[2]; Run 3, 48 h, 0.1 μg/ml CDDP
  SRB Average: 2.768
[2]; Run 3, 48 h, 1 μg/ml CDDP
  SRB Average: 1.845
[2]; Run 3, 48 h, 10 μg/ml CDDP
  SRB Average: 2.104
[2]; Run 3, 48 h, 100 μg/ml CDDP
  SRB Average: 1.77
[2]; Run 3, 72 h, 0.1 μg/ml CDDP
  SRB Average: 2.96
[2]; Run 3, 72 h, 1 μg/ml CDDP
  SRB Average: 1.752
[2]; Run 3, 72 h, 10 μg/ml CDDP
  SRB Average: 2.063
[2]; Run 3, 72 h, 100 μg/ml CDDP
  SRB Average: 1.935
[3]; T47D Run 1, 24 h, 0.1 μg/ml CDDP
  CVE Average: 0.64
[3]; T47D Run 1, 24 h, 10 μg/ml CDDP
  CVE Average: 0.417
[3]; T47D Run 1, 48 h, 0.1 μg/ml CDDP
  CVE Average: 0.67
[3]; T47D Run 1, 48 h, 1 μg/ml CDDP
  CVE Average: 0.369
[3]; T47D Run 1, 48 h, 10 μg/ml CDDP
  CVE Average: 0.518
[3]; T47D Run 1, 48 h, 100 μg/ml CDDP
  CVE Average: 0.319
[3]; T47D Run 1, 72 h, 0.1 μg/ml CDDP
  CVE Average: 0.654
[3]; T47D Run 1, 72 h, 1 μg/ml CDDP
  CVE Average: 0.347
[3]; T47D Run 1, 72 h, 10 μg/ml CDDP
  CVE Average: 0.34
[3]; T47D Run 1, 72 h, 100 μg/ml CDDP
  CVE Average: 0.293
[3]; T47D Run 2, 24 h, 1 μg/ml CDDP
  CVE Average: 0.385
[3]; T47D Run 2, 24 h, 10 μg/ml CDDP
  CVE Average: 0.597
[3]; T47D Run 2, 24 h, 100 μg/ml CDDP
  CVE Average: 0.317
[3]; T47D Run 2, 48 h, 0.1 μg/ml CDDP
  CVE Average: 0.45
[3]; T47D Run 2, 48 h, 1 μg/ml CDDP
  CVE Average: 0.223
[3]; T47D Run 2, 48 h, 10 μg/ml CDDP
  CVE Average: 0.315
[3]; T47D Run 2, 72 h, 0.1 μg/ml CDDP
  CVE Average: 1.124
[3]; T47D Run 2, 72 h, 1 μg/ml CDDP
  CVE Average: 0.33
[3]; T47D Run 2, 72 h, 10 μg/ml CDDP
  CVE Average: 0.334
[3]; T47D Run 2, 72 h, 100 μg/ml CDDP
  CVE Average: 0.381
[3]; T47D Run 3, 24 h, 1 μg/ml CDDP
  CVE Average: 0.4
[3]; T47D Run 3, 24 h, 10 μg/ml CDDP
  CVE Average: 0.488
[3]; T47D Run 3, 24 h, 100 μg/ml CDDP
  CVE Average: 0.385
[3]; T47D Run 3, 48 h, 0.1 μg/ml CDDP
  CVE Average: 0.778
[3]; T47D Run 3, 48 h, 1 μg/ml CDDP
  CVE Average: 0.435
[3]; T47D Run 3, 48 h, 100 μg/ml CDDP
  CVE Average: 0.544
[3]; T47D Run 3, 72 h, 0.1 μg/ml CDDP
  CVE Average: 0.722
[3]; T47D Run 3, 72 h, 1 μg/ml CDDP
  CVE Average: 0.223
[3]; T47D Run 3, 72 h, 10 μg/ml CDDP
  CVE Average: 0.31
[3]; T47D Run 3, 72 h, 100 μg/ml CDDP
  CVE Average: 0.22
